Experimental data published in ChEMBL document CHEMBL3621135 (ACS Med Chem Lett, 2015).
Activity calls are given as the source filed them. The calls are words filed in the database; no cut-off is given here.

Key:
[1] = Inhibition of CYP450 in human liver microsomes; type: ADME
[2] = test system: Rattus norvegicus; assay: Toxicity in rat assessed as drug tolerability up to 100 mg/kg; type: organism-based; settings: in vivo
[3] = Half life in cynomolgus monkey at 1 mg/kg, iv and 1 mg/kg, po; type: ADME, organism-based, Macaca fascicularis; settings: in vivo
[4] = Oral bioavailability in rat at 1 mg/kg; type: ADME, organism-based; settings: in vivo
[5] = Antiproliferative activity against human SET2 cells incubated for 72 hrs by [3H] thymidine incorporation assay; type: functional, cell-based; settings: SET-2
[6] = test system: BaF3; assay: Antiproliferative activity against mouse BAF3 cells expressing JAK2 V617F mutant incubated for 72 hrs by [3H] thymidine incorporation assay; type: functional, cell-based
[7] = test system: A549; assay: Antiproliferative activity against human A549 cells incubated for 72 hrs by [3H] thymidine incorporation assay; type: functional, cell-based
[8] = test system: Mus musculus; assay: Inhibition of JAK2 in mouse pharamcodynamic model assessed as reduction in STAT5 phosphorylation at 30 mg/kg, po after 18 hrs; type: functional, organism-based
[9] = target: T1, Tyrosine-protein kinase JAK1 (Homo sapiens, UniProt P23458); assay: Binding affinity to JAK1 (unknown origin) assessed as dissociation constant
[10] = Volume of distribution at steady state in rat at 1 mg/kg, iv and 1 mg/kg, po; type: ADME, organism-based; settings: in vivo, read-out: Vdss
[11] = organism: Homo sapiens; assay: Inhibition of sodium channel (unknown origin) at 10 uM at 1 and 4 Hz stimulation by patch clamp assay
[12] = AUC (0 to 8 hrs) in mouse pharamcodynamic model at 30 mg/kg, po; type: ADME, organism-based; design: dose 30 mg/kg, time < 8 hr, route oral; settings: in vivo
[13] = test system: Mus musculus; assay: Inhibition of JAK2 V617F mutant in mouse pharamcodynamic model expressing JAK2 V617F mutant assessed as reduction in STAT5 phosphorylation at 2 mg/kg, po measured up to 7 hrs; type: functional, organism-based
[14] = test system: Mus musculus; assay: AUC (0 to 8 hrs) in mouse pharamcodynamic model at 10 mg/kg, po; type: ADME, organism-based; design: dose 10 mg/kg, time < 8 hr, route oral; settings: in vivo
[15] = Permeability of the compound in pH 7.4 solution by PAMPA method; type: physicochemical; settings: read-out: permeability
[16] = Half in human liver microsomes; type: ADME
[17] = Half life in rat at 1 mg/kg, iv and 1 mg/kg, po; type: ADME, organism-based; settings: in vivo
[18] = test system: BaF3; assay: Antiproliferative activity against IL3-stimulated mouse BAF3 cells incubated for 72 hrs by [3H] thymidine incorporation assay; type: functional, cell-based
[19] = AUC (0 to 72 hrs) in rat; type: ADME, organism-based; design: time < 72 hr; settings: in vivo
[20] = Antiproliferative activity against mouse CTLL-2 cells incubated for 72 hrs by [3H] thymidine incorporation assay; type: functional, cell-based
[21] = target: T1, Tyrosine-protein kinase JAK1; assay: Inhibition of recombinant JAK1 (unknown origin) using 5-FAM-KKKKEEIYFFFG-OH substrate and ATP incubated for 180 mins by […] method
[22] = test system: Mus musculus; assay: Inhibition of JAK2 in mouse pharamcodynamic model assessed as reduction in STAT5 phosphorylation at 10 mg/kg, po measured up to 18 hrs; type: functional
[23] = Half in dog liver microsomes; type: ADME, Canis lupus familiaris
[24] = target: JAK3/JAK1 (Homo sapiens, UniProt P23458+P52333); assay: Inhibition of JAK1/JAK3 in T cells (unknown origin) assessed as reduction in IL2-mediated cell proliferation; type: cell-based
[25] = test system: Mus musculus; assay: Oral bioavailability in mouse at 10 mg/kg; type: ADME, organism-based; settings: in vivo
[26] = Oral bioavailability in dog at 0.2 mg/kg; type: ADME, organism-based, Canis lupus familiaris; settings: in vivo
[27] = Half life in mouse at 2 mg/kg, iv and 10 mg/kg, po; type: ADME, organism-based; settings: in vivo
[28] = test system: Salmonella typhimurium; assay: Mutagenicity in Salmonella typhimurium by Ames test; type: toxicity, organism-based; settings: salmonella enterica subsp. enterica serovar typhimurium
[29] = Volume of distribution at steady state in mouse at 2 mg/kg, iv and 10 mg/kg, po; type: ADME, organism-based; settings: in vivo, read-out: Vdss
[30] = Half life in dog at 0.2 mg/kg, iv and 0.2 mg/kg, po; type: ADME, organism-based, Canis lupus familiaris; settings: in vivo
[31] = Toxicity against human HepG2 cells; type: cell-based
[32] = target: Tyrosine-protein kinase JAK2 (Mus musculus, UniProt Q62120); assay: Inhibition of JAK2 in mouse BAF3 cells assessed as reduction in STAT5 phosphorylation incubated for 2 hrs by Western blot method; type: cell-based
[33] = test system: MDA-MB-231; assay: Antiproliferative activity against human MDA-MB-231 cells incubated for 72 hrs by [3H] thymidine incorporation assay; type: functional, cell-based
[34] = target: T2, hERG (Homo sapiens, UniProt Q12809); assay: Inhibition of human ERG channel at 30 uM
[35] = AUC (0 to 24 hrs) in dog; type: ADME, organism-based, Canis lupus familiaris; design: time < 24 hr; settings: in vivo
[36] = target: Phosphodiesterase 4 (Homo sapiens, UniProt P27815+Q08499+Q07343+Q08493); assay: Inhibition of PDE4 (unknown origin); type: protein assay
[37] = Volume of distribution at steady state in dog at 0.2 mg/kg, iv and 0.2 mg/kg, po; type: ADME, organism-based, Canis lupus familiaris; settings: in vivo, read-out: Vdss
[38] = Inhibition of calcium channel (unknown origin) by patch clamp assay; design: species or system Homo sapiens
[39] = test system: MIA PaCa-2; assay: Antiproliferative activity against human MIAPaCa2 cells incubated for 72 hrs by [3H] thymidine incorporation assay; type: functional, cell-based
[40] = test system: Mus musculus; assay: Inhibition of JAK2 in mouse pharamcodynamic model assessed as reduction in STAT5 phosphorylation at 5 mg/kg, po measured after 8 hrs; type: functional
[41] = Clearance in cynomolgus monkey at 1 mg/kg, iv and 1 mg/kg, po; type: ADME, organism-based, Macaca fascicularis; settings: in vivo
[42] = Oral bioavailability in cynomolgus monkey at 1 mg/kg; type: ADME, organism-based, Macaca fascicularis; settings: in vivo
[43] = Toxicity in micronucleus (unknown origin) assessed as induction of clastogenesis by micronucleus assay
[44] = target: T2, hERG; assay: Inhibition of human ERG at 30 uM by patch clamp assay
[45] = test system: Rattus norvegicus; assay: Reduction in reticulocytes in rat at 15 mg/kg/day for 2 weeks; type: functional, organism-based
[46] = target: Tyrosine-protein kinase JAK2 (Homo sapiens, UniProt O60674); assay: Binding affinity to JAK2 (unknown origin) assessed as dissociation constant
[47] = Volume of distribution at steady state in cynomolgus monkey at 1 mg/kg, iv and 1 mg/kg, po; type: ADME, organism-based, Macaca fascicularis; settings: in vivo, read-out: Vdss
[48] = AUC (0 to 24 hrs) in rat assessed as drug tolerability at 15 mg/kg/day for 2 weeks measured on day 14; type: ADME, organism-based; design: time < 24 hr, dose 15 mg/kg/day; settings: in vivo
[49] = Clearance in dog at 0.2 mg/kg, iv and 0.2 mg/kg, po; type: ADME, organism-based, Canis lupus familiaris; settings: in vivo
[50] = Clearance in rat at 1 mg/kg, iv and 1 mg/kg, po; type: ADME, organism-based; settings: in vivo
[51] = Half in rat liver microsomes; type: ADME

T1 sequence (P23458 whole entry): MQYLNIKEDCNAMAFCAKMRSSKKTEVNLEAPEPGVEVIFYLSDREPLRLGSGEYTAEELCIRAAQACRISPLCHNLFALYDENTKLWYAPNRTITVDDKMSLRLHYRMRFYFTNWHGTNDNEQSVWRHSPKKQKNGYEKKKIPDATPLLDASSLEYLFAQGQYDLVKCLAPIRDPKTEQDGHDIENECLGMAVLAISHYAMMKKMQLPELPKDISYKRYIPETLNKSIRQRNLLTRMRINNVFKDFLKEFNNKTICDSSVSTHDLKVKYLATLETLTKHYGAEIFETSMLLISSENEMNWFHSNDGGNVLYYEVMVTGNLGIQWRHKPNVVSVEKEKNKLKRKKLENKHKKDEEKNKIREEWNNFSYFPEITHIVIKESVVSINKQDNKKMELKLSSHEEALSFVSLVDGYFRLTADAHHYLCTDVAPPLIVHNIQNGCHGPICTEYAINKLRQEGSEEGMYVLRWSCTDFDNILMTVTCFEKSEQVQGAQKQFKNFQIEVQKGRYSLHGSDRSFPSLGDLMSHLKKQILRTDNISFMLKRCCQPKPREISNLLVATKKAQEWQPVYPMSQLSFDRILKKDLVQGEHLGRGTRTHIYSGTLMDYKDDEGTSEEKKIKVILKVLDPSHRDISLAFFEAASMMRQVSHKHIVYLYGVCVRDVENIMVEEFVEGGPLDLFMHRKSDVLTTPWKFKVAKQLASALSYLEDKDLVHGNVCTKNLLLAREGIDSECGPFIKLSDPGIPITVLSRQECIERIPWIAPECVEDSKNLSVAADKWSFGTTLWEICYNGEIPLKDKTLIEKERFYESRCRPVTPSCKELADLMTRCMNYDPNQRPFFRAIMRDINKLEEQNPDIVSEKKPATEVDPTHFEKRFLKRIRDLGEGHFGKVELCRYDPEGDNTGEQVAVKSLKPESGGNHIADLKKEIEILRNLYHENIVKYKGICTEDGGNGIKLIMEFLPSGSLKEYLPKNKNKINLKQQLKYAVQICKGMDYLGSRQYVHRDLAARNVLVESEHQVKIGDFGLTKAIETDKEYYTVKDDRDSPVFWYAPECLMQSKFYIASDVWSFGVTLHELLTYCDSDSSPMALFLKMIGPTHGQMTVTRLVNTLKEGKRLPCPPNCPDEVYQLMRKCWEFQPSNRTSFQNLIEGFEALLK
T2 sequence (Q12809 whole entry): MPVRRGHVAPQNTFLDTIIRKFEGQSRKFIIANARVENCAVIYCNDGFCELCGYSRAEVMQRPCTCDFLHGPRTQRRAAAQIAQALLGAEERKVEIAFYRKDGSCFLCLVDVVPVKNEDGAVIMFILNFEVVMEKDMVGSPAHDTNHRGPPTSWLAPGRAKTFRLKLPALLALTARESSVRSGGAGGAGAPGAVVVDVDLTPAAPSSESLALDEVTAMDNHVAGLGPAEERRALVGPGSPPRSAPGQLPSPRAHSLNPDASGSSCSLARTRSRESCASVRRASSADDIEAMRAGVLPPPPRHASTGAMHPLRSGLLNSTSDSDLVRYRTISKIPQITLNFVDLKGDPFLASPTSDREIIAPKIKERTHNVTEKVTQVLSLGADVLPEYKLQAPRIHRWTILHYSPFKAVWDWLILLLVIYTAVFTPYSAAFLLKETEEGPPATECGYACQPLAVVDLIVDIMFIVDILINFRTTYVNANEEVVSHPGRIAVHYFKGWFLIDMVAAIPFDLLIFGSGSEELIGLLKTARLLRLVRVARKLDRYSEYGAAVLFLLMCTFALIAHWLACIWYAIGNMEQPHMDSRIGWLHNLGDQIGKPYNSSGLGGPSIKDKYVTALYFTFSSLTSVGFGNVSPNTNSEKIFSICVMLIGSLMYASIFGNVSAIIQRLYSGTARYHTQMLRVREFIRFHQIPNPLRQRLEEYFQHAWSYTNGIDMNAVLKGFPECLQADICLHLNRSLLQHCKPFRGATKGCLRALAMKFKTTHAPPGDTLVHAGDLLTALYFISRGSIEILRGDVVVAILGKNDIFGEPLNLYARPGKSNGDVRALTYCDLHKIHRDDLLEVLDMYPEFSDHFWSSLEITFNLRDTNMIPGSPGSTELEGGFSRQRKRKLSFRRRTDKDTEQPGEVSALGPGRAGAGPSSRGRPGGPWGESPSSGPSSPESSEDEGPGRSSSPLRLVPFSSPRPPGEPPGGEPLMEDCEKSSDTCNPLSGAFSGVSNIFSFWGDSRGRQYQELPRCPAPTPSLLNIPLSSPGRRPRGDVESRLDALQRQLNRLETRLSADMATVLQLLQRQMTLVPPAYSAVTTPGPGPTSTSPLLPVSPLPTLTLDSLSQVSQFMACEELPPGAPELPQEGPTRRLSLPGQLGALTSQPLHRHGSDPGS
Chain of JAK3/JAK1 (P52333 whole entry): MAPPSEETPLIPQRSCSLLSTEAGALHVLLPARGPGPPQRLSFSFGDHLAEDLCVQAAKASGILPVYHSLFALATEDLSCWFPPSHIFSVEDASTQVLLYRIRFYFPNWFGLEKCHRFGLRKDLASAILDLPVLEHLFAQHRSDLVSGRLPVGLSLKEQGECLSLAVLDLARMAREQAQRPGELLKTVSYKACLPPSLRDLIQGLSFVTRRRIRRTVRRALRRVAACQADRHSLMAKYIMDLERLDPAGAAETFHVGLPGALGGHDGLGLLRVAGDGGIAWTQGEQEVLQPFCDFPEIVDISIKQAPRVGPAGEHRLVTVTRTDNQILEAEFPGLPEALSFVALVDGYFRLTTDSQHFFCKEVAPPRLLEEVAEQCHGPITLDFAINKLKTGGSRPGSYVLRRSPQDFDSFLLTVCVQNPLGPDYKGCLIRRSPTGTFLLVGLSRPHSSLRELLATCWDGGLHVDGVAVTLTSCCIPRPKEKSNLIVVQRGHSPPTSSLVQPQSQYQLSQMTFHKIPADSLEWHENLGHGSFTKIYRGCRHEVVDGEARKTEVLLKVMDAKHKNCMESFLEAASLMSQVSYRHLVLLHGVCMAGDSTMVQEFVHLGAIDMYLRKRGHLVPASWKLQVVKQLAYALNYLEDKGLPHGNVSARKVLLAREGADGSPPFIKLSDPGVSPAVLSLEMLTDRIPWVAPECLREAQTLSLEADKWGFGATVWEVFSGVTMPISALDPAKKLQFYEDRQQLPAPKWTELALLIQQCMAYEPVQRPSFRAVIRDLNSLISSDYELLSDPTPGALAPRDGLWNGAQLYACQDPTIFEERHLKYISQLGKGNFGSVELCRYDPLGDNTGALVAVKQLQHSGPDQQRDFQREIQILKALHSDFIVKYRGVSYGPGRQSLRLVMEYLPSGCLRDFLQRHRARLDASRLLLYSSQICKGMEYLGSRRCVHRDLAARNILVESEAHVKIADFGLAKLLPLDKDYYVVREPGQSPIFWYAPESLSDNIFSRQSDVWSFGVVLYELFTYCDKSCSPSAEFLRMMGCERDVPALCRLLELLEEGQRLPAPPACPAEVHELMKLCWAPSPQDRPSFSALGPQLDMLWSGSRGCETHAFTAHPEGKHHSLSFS
Chain of JAK3/JAK1 (P23458 whole entry): as the sequence (P23458 whole entry) above
Chain of Tyrosine-protein kinase JAK2 (Homo sapiens, UniProt O60674) (O60674 whole entry): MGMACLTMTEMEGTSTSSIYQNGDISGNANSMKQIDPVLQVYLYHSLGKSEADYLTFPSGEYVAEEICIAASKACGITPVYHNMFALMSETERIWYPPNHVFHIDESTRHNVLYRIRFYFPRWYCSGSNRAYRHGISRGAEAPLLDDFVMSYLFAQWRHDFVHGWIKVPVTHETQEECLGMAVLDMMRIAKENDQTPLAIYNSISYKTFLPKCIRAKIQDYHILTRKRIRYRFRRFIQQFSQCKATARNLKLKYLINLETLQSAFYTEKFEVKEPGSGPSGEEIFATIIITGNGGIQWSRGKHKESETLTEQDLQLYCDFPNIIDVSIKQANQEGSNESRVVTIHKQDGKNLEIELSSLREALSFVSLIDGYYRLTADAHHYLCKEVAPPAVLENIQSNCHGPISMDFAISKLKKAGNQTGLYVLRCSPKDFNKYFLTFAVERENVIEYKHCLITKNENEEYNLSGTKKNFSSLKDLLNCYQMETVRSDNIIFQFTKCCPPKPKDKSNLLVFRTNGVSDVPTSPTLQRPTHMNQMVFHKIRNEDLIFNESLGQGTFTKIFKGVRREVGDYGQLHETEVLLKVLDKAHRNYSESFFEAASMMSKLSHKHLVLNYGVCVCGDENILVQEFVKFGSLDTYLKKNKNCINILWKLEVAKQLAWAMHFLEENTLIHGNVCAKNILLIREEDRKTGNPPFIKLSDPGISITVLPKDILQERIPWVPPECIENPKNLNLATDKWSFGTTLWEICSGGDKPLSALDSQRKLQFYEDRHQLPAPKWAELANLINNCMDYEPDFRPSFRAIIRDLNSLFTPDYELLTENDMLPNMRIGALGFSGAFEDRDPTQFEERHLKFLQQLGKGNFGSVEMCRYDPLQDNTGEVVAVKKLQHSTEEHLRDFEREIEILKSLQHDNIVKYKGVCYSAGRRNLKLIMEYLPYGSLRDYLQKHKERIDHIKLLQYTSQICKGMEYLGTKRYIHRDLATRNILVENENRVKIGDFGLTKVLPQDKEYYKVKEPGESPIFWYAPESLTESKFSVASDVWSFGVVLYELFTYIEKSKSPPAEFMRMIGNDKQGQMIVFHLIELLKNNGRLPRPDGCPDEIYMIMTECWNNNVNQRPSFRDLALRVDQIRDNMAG

Question: Which IC50 [1] does the source give for `CCn1c(C(=O)N(C2CC2)C2CC2)cc2c3c(ncn3C)c(Nc3cc(C)n(C)n3)nc21` [BMS-911543] here?
Answer: > 40000 nM

Question: And the Activity [2]?
Answer: Non-toxic

Question: And the half-life [3]?
Answer: 2.4 h

Question: What about the bioavailability [4] of the same compound?
Answer: 100%

Question: And the IC50 [5]?
Answer: 60 nM

Question: And the IC50 [6]?
Answer: 70 nM

Question: What about the IC50 [7] of the same compound?
Answer: 2400 nM

Question: What about the inhibition [8] of the same compound?
Answer: Active

Question: And the Kd [9]?
Answer: 110 nM

Question: What about the Vd [10] of the same compound?
Answer: 0.3 L/kg

Question: What about the inhibition [11] of the same compound?
Answer: < 10%

Question: And the AUC(0-t) at 8 h [12]?
Answer: 109 µM·h

Question: And the inhibition [13]?
Answer: Active

Question: What about the AUC [14] of the same compound?
Answer: 41 µM·h

Question: And the Papp [15]?
Answer: 69.8 ×10⁻⁶ cm/s

Question: And the half-life [16]?
Answer: 0.817 h

Question: What about the half-life [17] of the same compound?
Answer: 5 h

Question: And the IC50 [18]?
Answer: 3500 nM

Question: What about the AUC(0-t) at 72 h [19] of the same compound?
Answer: 11300 µM·h

Question: What about the IC50 [20] of the same compound?
Answer: 2900 nM

Question: And the IC50 [21]?
Answer: 75 nM

Question: And the inhibition in vivo at 10 mg/kg [22]?
Answer: 65%

Question: What about the half-life [23] of the same compound?
Answer: 1.17 h

Question: And the IC50 [24]?
Answer: 990 nM

Question: What about the F [25] of the same compound?
Answer: 100%

Question: And the bioavailability [26]?
Answer: 82%

Question: What about the half-life [27] of the same compound?
Answer: 5.1 h

Question: What about the Activity [28] of the same compound?
Answer: Non-toxic

Question: What about the Vd [29] of the same compound?
Answer: 0.26 L/kg

Question: What about the half-life [30] of the same compound?
Answer: 2.2 h

Question: And the IC50 [31]?
Answer: > 50000 nM

Question: What about the IC50 [32] of the same compound?
Answer: 65 nM

Question: And the Activity [33]?
Answer: inactive

Question: And the inhibition at 30 µM [34]?
Answer: 20%

Question: And the AUC(0-t) at 24 h [35]?
Answer: 610 µM·h

Question: What about the IC50 [36] of the same compound?
Answer: 5600 nM

Question: What about the Vd [37] of the same compound?
Answer: 1.6 L/kg

Question: And the IC50 [38]?
Answer: > 80000 nM

Question: What about the Activity [39] of the same compound?
Answer: inactive

Question: And the inhibition in vivo at 5 mg/kg [40]?
Answer: 50%

Question: What about the clearance [41] of the same compound?
Answer: 5.3 mL/min/kg

Question: What about the bioavailability [42] of the same compound?
Answer: 53%

Question: And the Activity [43]?
Answer: Non-toxic

Question: What about the inhibition at 30 µM [44] of the same compound?
Answer: 20%

Question: What about the Activity [45] of the same compound?
Answer: Active

Question: And the Kd [46]?
Answer: 0.48 nM

Question: What about the Vd [47] of the same compound?
Answer: 1.1 L/kg

Question: And the AUC at 24 h [48]?
Answer: 3200 µM·h

Question: And the clearance [49]?
Answer: 6.5 mL/min/kg

Question: And the clearance [50]?
Answer: 0.7 mL/min/kg

Question: And the half-life [51]?
Answer: 1.15 h
